Measurements published in article PMC9194828, “Chemoenzymatic Synthesis of Asymmetrically Branched Human Milk Oligosaccharide Lacto-N-Hexaose” (Frontiers in Chemistry, 2022).

Target: T1, HP0826 (β1,4-galactosyltransferase) (Helicobacter pylori, UniProt O25500)
T1 construct: gene HP_0826; recombinantly expressed per earlier literature (Fang et al., 2018); used as cell lysate in synthesis
Test: acceptor specificity test
Type: cell-based
Conditions: UDP-Gal donor; enzyme preparation not given

T1 sequence (O25500 entry or part of it): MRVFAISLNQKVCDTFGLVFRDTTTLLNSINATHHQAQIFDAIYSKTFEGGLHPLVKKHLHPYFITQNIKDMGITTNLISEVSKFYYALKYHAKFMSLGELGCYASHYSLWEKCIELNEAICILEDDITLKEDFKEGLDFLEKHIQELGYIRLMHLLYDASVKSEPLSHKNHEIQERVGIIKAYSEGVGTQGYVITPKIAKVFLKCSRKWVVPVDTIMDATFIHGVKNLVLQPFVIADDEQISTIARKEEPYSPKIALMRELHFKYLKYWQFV

CC(=O)N[C@H]1[C@H](OCCCCCCN=[N+]=[N-])O[C@H](CO)[C@@H](O)[C@@H]1O [GlcNAc-C6N3]
acceptor specificity test: HP0826 exhibited excellent enzymatic activity on GlcNAc-C6N3
